According to US20230277573A1, “OLIGOSACCHARIDE COMPOSITIONS AND METHODS OF USE” (DSM Nutritional Products, LLC, priority 2020, published 2023):

Tested on: western diet (WD)-induced obese low density lipoprotein receptor knock-out (ldlr−/−) mouse model
Assay: Western diet (WD)-induced obese ldlr−/− mouse model: blood, liver, aorta and body weight readouts
Type: in vivo
Conditions: WD-fed ldlr−/− mice, 16 wk, fenofibrate 100 mg/kg/day
Method: The therapeutic and microbiome effects of the selected oligosaccharide composition were tested in a validated western diet (WD)-induced obese low density lipoprotein receptor knock-out (ldlr^−/−) mouse model, thought to recapitulate a number of metabolic pathologies found in humans, including obesity, hyperglycemia, glucose intolerance, hyperinsulinemia, insulin resistance, severe hypercholesterolemia, hypertriglyceridemia, atherosclerosis, hepatic steatosis and hepatic inflammation. […]
9-11 weeks old male C57BL/6J ldlr^−/− mice were split into one of four treatment groups (12 animals per group, 4 animals per cage)—(1) no treatment (NT), (2) the selected oligosaccharide (as produced by the process described in Example 2), (3) a glucose/galactose-based oligosaccharide composition and (4) fenofibrate—for 16 weeks. […] The body weight for each animal was measured prior to the treatment period and weekly over the treatment period. 4-day food intake for each cage was measured weekly over the treatment period and averaged as food intake per mouse per day. […] For each animal, separate liver sections (˜100 mg each) were collected and frozen for the quantification of hepatic TG and hepatic TC. […] The aortic arch was surface stained with oil red O for the quantification of atherosclerotic plaque surface area.

CC(C)OC(=O)C(C)(C)Oc1ccc(C(=O)c2ccc(Cl)cc2)cc1 [fenofibrate, Fenofibrate]
effect on food intake (OS 7.5% w/w in diet): no effect | body weight gain lowered by, compared to NT: 44%
